Data as given in patent US20260027083A1, “USE OF PPAR AGONIST FOR IMPROVEMENT OF ENERGY METABOLISM” (NOVMETAPHARMA CO., LTD., priority 2022, published 2026).

Assays:
PPARγ = biological target: T1, PPARγ (Homo sapiens, UniProt P37231); experiment: Gal4 trans-activated luciferase reporter assay, PPARγ-LBD, HEK293; type: cell-based; details: HEK293, drug treatment 24 hours, FIG. 1
T1 construct: three types of pcDNA5-GAL4 and pGALRE-luc containing PPARα-LBD, PPARβ/δ-LBD, or PPARγ-LBD; GAL4 (fusion partner from vector pcDNA5-GAL4); expressed in transfected cells; host or cells: HEK293
T1 sequence (P37231 238-503 limits assumed): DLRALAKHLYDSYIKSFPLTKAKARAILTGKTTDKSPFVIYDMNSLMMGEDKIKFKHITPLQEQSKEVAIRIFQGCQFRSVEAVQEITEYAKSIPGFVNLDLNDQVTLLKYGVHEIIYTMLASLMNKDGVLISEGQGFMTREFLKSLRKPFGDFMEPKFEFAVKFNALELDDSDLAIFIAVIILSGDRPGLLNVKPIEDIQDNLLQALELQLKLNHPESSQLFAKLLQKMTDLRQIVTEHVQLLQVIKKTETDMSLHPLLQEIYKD
Method: A plasmid was transformed into E. coli (DE3, Rosetta) and transfected into HEK293 cells and used. Referring to known literatures such as Kanno, Y. & Inouye, Y. J Toxicol Sci 35, 515-525 (2010), Zhao, S. et al. J Nat Prod 79, 879-885 (2016), etc., luciferase assay was performed on three types of pcDNA5-GAL4 and pGALRE-luc containing PPARα-LBD, PPARβ/δ-LBD, or PPARγ-LBD. pProEX-PPAR and pET-28a were used for purification of His-tagged recombinant hPPAR-LBD protein.
A HEK293 cell line was cultured in Dulbecco's Modified Eagle Medium (DMEM) containing 10% Fetal Bovine Serum (FBS) and 1% penicillin-streptomycin (P/S). […]
Transfected HEK293 cells were treated with a drug and after 24 hours, the cells were collected, resuspended in a luciferase lysis buffer (Promega, Madison, Wisconsin, USA), and incubated on ice for 10 minutes. […] Next, Firefly Luciferase (Fluc) and Renilla Luciferase (Rluc) activities were measured using the Dual Luciferase Reporter Assay System (Promega, Madison, Wisconsin, USA). […]
To confirm whether a compound represented by Chemical Formula 1 was a PPAR agonist, Gal4 trans-activated luciferase assay was performed. Specifically, HEK293 cells were transfected with the Gal4-luciferase reporter systems of PPARα, PPARβ/δ, and PPARγ, respectively, harvested after drug treatment for 24 hours, and then analyzed by Dual-Luciferase assay. […]

high-fat diet mice [1] = experiment: High-fat diet mice: body weight and food intake; type: in vivo, C57BL/6J mice; details: 5 mg/kg/day oral, 13 weeks, 60% HFD, vs HFD-V, FIG. 6
Method: (§1) The care and use of experimental animals were carried out with the approval of the Institutional Animal Care and Use Committee of Pohang University of Science and Technology. C57BL/6J mice were purchased from Japan SLC, Inc. 50 four-week-old male C57/BL/6J mice were acclimated for 2 weeks. The mice were randomly divided and orally administered with vehicle or 5 mg/kg/day of D6 or WY14643 for 13 weeks (oral gavage), and obesity was induced by a 60% high-fat diet (#D12492, Research diets, NJ, USA). Body weights and food intakes were measured weekly from 6 weeks of age, and after 16 weeks of age, adipose tissue and muscle volumes were measured using a Trimodality imaging system.
(§2) To confirm a metabolic disease inhibitory effect of the compound represented by Chemical Formula 1 through animal experiments, mice were acclimated for 2 weeks, and then obesity was induced by feeding a 60% high fat diet (HFD) and orally administered with vehicle or 5 mg/kg/day of the compound represented by Chemical Formula 1 (D6) or WY14643 for 13 weeks. Experiments such as IP-GTT, IP-ITT, and micro-CT were performed at the week 10 of drug administration (FIG. 5).

high-fat diet mice [2] = experiment: High-fat diet mice: micro-CT adipose tissue volume; type: in vivo, C57BL/6J mice; details: 5 mg/kg/day oral, 60% HFD, vs control group, FIGS. 7 and 8
Method: as §1, §2

high-fat diet mice [3] = experiment: High-fat diet mice: organ weights; type: in vivo, C57BL/6J mice; details: 5 mg/kg/day oral, 60% HFD, vs HFD-V, FIG. 9
Method: as §1, §2

high-fat diet mice [4] = experiment: Histology of adipose tissues of high-fat diet mice (H&E); type: in vivo, C57BL/6J mice; details: 5 mg/kg/day oral, 60% HFD
Method: as §1
Mouse tissues were fixed with 10% formalin solution (Sigma-Aldrich, St. Louis, MO, USA), and paraffin-embedded tissues were segmented and stained with hematoxylin and eosin (H&E) staining and Sirius Red staining (IHC world, Woodstock, USA).
To observe the effects of the compound represented by Chemical Formula 1 on metabolic diseases, biopsy was performed on adipose tissues of high-fat diet mice.

relative luciferase activity (Fluc to Rluc) for PPARγ (PPARγ): dose-dependently increased
SMILES: COc1ccc(-c2cc(=O)oc3c(C)c(OC(=O)[C@H](Cc4c[nH]c5ccccc45)NC(=O)OC(C)(C)C)ccc23)cc1 [Chemical Formula 1, [4-(4-methoxyphenyl)-8-methyl-2-oxochromen-7-yl] (2S)-3-(1H-indol-3-yl)-2-[(2-methylpropan-2-yl)oxycarbonylamino]propanoate]
food intake (high-fat diet mice [1]): no significant change
rate of weight gain (high-fat diet mice [1]): significantly reduced
volume of adipose tissue (micro-CT) (high-fat diet mice [2]): significantly reduced
epididymal white adipose tissue (eWAT) weight (high-fat diet mice [3]): reduced
liver weight (high-fat diet mice [3]): reduced
adipocyte sizes in adipose tissue (H&E staining) (high-fat diet mice [4]; FIG. 14): reduced
adipocyte size distribution, brown adipose tissue (BAT) (high-fat diet mice [4]; FIG. 15): reducing adipocyte sizes
adipocyte size distribution, epididymal white adipose tissue (eWAT) (high-fat diet mice [4]; FIG. 15): reducing adipocyte sizes
adipocyte size distribution, inguinal WAT (iWAT) (high-fat diet mice [4]; FIG. 15): reducing adipocyte sizes
